We go through eight molecules from article PMC9506485, “Synthesis and Structure–Activity Relationships for the Anti-Mycobacterial Activity of 3-Phenyl-N-(Pyridin-2-ylmethyl)Pyrazolo[1,5-a]Pyrimidin-7-Amines” (Pharmaceuticals, 2022).

The structures appear in SMILES notation. Values after ≈ are worked out from the molar mass of the structure shown.

For data set [1], the system named is M. smegmatis inverted membrane vesicle. The arrangement: method as in doi:10.1039/C5MD00589B, PMID 35140452. To be noted: M. smegmatis inverted membrane vesicle assay; cited from earlier work.
The subject of the next data set is tuberculosis. Also on record: method as in doi:10.1039/C5MD00589B, PMID 35140452. To be noted: cited from earlier work.
A further data set deals with M.tb bacteria. Also on record: method as in doi:10.1039/C5MD00589B, PMID 35140452. To be noted: cited from earlier work.
Data set [2] relates to Mycobacterium tuberculosis (strain H37Rv). Nature of the data set: MABA minimum inhibitory concentration assay (aerobic/replicating). Format: cell-based. To be noted: M.tb H37Rv; for anti-mycobacterial activity in words: MABA/LORA; for MIC90: Mycobacterium tuberculosis, aerobic/replicating, 90% inhibition of growth.
The nature of data set [3]: Microsomal stability, human liver microsomes. Format: in vitro ADME. To be noted: pH 7.4; for microsomal CLint at 1 μM: human liver microsomes, read-out: HLM Clint(mic). An outline of the steps: (§1)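 Compounds at 1 μM incubated at 37 °C with human or CD-1 mouse liver microsomes (0.5 mg/mL protein) plus NADPH regenerating system in 100 mM phosphate buffer, pH 7.4. Samples taken at 0–60 min, quenched in cold acetonitrile and analysed by LC-MS/MS.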
A general note: Liver microsomes are vesicles of endoplasmic reticulum, rich in cytochrome P450 enzymes.

For data set [4], the system named is VERO green monkey kidney cells. Nature of the data set: VERO mammalian cell toxicity assay. Format: cell-based. To be noted: Chlorocebus sabaeus; inhibition of growth of VERO green monkey kidney epithelial cells.
Data set [5] in a line: Microsomal stability, mouse liver microsomes. Format: in vitro ADME. To be noted: for CLint scaled at 1 μM / half-life at 1 μM: CD-1, mouse, microsomes, pH 7.4; for microsomal CLint at 1 μM: CD-1, pH 7.4, mouse liver microsomes, read-out: MLM Clint(mic). An outline of the steps:
as §1

Data set [6] concerns Mycobacterium tuberculosis (strain H37Rv). Nature of the data set: LORA minimum inhibitory concentration assay (low-oxygen/non-replicating). To be noted: M.tb H37Rv, 90% inhibition of growth.
Another data set concerns the target hERG (Homo sapiens, UniProt Q12809). Description: hERG channel blockade, manual patch clamp. To be noted: cloned hERG potassium channels, room temperature; for inhibition at 0.3 µM: read-out: hERG % inhib. at 0.3 µM; for inhibition at 1 µM: read-out: hERG % inhib. at 1.0 µM. Format: cell-based. The protocol:
Selected compounds were evaluated for hERG channel blockade (Table 4) by WuXi AppTec (Shanghai) Co., Ltd. This was carried out using cloned hERG potassium channels according to their standard manual patch clamp method. Two concentrations (0.3 and 1.0 µM) were tested (at room temperature), and at least three replicates were obtained for each. Amitryptyline was used as a standard.

[7] abbreviates: human/mouse liver microsomes not distinguished, read-out: T½ values (microsomal stability).

Chain of hERG (Q12809 whole entry): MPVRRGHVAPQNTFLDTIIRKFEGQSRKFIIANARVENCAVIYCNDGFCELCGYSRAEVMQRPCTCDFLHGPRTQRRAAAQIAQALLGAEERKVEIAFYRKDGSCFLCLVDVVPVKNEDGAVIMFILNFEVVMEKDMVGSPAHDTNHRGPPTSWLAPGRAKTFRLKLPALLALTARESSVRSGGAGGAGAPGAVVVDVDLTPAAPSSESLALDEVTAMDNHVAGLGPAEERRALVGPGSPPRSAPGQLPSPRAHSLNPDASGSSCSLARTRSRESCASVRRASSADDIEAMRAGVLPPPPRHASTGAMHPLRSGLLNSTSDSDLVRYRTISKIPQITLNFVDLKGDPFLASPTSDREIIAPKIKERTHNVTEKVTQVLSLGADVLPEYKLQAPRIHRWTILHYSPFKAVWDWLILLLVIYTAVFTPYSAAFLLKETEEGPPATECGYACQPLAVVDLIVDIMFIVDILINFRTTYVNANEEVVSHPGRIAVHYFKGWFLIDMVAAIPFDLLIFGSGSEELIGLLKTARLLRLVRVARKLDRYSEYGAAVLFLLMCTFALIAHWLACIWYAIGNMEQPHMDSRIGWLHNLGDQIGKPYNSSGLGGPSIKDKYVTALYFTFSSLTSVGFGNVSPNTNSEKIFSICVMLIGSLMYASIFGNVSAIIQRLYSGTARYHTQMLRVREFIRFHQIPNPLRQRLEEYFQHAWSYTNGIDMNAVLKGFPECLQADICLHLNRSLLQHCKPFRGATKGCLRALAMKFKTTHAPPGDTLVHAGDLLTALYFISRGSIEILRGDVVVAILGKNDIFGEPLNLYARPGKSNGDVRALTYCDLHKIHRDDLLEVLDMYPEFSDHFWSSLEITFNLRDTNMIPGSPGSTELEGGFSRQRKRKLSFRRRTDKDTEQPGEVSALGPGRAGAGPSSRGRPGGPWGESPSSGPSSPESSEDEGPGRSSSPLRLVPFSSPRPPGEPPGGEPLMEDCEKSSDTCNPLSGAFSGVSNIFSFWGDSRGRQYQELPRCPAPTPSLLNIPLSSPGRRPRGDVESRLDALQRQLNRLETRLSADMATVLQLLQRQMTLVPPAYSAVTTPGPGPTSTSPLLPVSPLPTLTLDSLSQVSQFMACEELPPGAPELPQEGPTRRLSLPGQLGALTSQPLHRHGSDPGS

As to `CN(C)CCOc1ncc(Nc2cc(-c3ccccc3)nc3cc(-c4ccc(F)cc4)nn23)cc1F` [Compound 5], the “depletion of ATP” value in data set [1] is listed as “modest inhibitors”. In addition, the “activity in vivo in an acute mouse model of tuberculosis” value with tuberculosis is recorded as “active in vivo”. Also, in the data set on M.tb bacteria, the “inhibition of M.tb bacteria in culture” value is “modest inhibitors”.
For `CN(C)CCOc1ncc(Nc2cc(C(F)(F)F)nc3cc(-c4ccc(F)cc4)nn23)cc1F` [Compound 6], in [1], the “depletion of ATP” value is given as “modest inhibitors”. For the same molecule, the “activity in vivo in an acute mouse model of tuberculosis” value in the data set on tuberculosis was “active in vivo”. Besides, the “inhibition of M.tb bacteria in culture” value in the data set with M.tb bacteria was “modest inhibitors”.
Broadly, the MIC90 is the lowest concentration that inhibits either 90% of growth or 90% of the strains tested, depending on the study. For orientation: CLint scaled means a measure of how fast metabolising enzymes remove a compound, apart from limits set by blood flow. The IC50 is the midpoint of a concentration-inhibition curve. What is called melting point is the temperature of the solid-liquid transition. Molecule `Fc1ccc(-c2cnn3c(NCc4ccccn4)cc(-c4ccccc4)nc23)cc1` [Compound 18, 3-(4-Fluorophenyl)-5-phenyl-N-(pyridin-2-ylmethyl)pyrazolo[1,5-a]pyrimidin-7-amine] had a melting point of 191 to 193 °C. Besides, in [2], the “anti-mycobacterial activity in words” value was “active” and the MIC90 stood at 3.8 µg/mL (≈ 9.61 µM). In data set [3] (human, microsomes), this molecule gave a CLint scaled at 1 μM of 12 mL/min/kg and a half-life at 1 μM of 1.75 h. Besides, in [3], the microsomal CLint at 1 μM amounted to 13 µL/min/mg. Also, the half-life at 1 μM in data set [3] (setting [7]) is less than 1.42 h. This molecule also yielded an IC50 in data set [4] of more than 32 µg/mL. Also, in [5], the CLint scaled at 1 μM was 99 mL/min/kg, the half-life at 1 μM stood at 0.933 h and the microsomal CLint at 1 μM was 25 µL/min/mg. The “MIC90 LORA” value in data set [6] worked out at 0.40 µg/mL (≈ 1.01 µM). Further, on hERG, the inhibition at 0.3 µM came out at 0.3% and the inhibition at 1 µM amounted to 5%.
As to `COc1ccc(-c2cnn3c(NCc4ccccn4)cc(-c4ccccc4)nc23)cc1` [Compound 20, 3-(4-Methoxyphenyl)-5-phenyl-N-(pyridin-2-ylmethyl)pyrazolo[1,5-a]pyrimidin-7-amine], the melting point was in the range of 187 to 189 °C. Moreover, in [2], the “anti-mycobacterial activity in words” value is given as “active” and the MIC90 worked out at 3.6 µg/mL (≈ 8.83 µM). Besides, in data set [3] (human, microsomes), the CLint scaled at 1 μM came out at 20 mL/min/kg and the half-life at 1 μM stood at 1.03 h. Also, in [3], the microsomal CLint at 1 μM came to 22 µL/min/mg. Besides, in data set [3] (setting [7]), the half-life at 1 μM is less than 1.42 h. The IC50 in [4] is more than 32 µg/mL. In data set [5], the CLint scaled at 1 μM came out at 92 mL/min/kg, the half-life at 1 μM was 1 h and the microsomal CLint at 1 μM was determined as 23 µL/min/mg. The “MIC90 LORA” value in data set [6] turned out to be 0.51 µg/mL (≈ 1.25 µM). At hERG, the inhibition at 0.3 µM was determined as 0% and the inhibition at 1 µM stood at 0%.
As for `Fc1ccc(-c2cnn3c(NCc4ccc(F)cn4)cc(-c4ccccc4)nc23)cc1` [Compound 52, 3-(4-Fluorophenyl)-N-((5-fluoropyridin-2-yl)methyl)-5-phenylpyrazolo[1,5-a]pyrimidin-7-amine], the melting point lay within 118 to 120 °C. The molecule further gave an MIC90 in data set [2] of 3.7 µg/mL (≈ 8.95 µM). For the same molecule, in data set [3] (human, microsomes), the intrinsic clearance (CLint scaled) at 1 μM is 11 mL/min/kg and the half-life at 1 μM stood at 1.81 h. For the same molecule, the microsomal CLint at 1 μM in [3] amounted to 13 µL/min/mg. For the same molecule, in [4], the IC50 is more than 32 µg/mL. For the same molecule, in data set [5], the CLint scaled at 1 μM came to 50.3 mL/min/kg, the half-life at 1 μM turned out to be 1.82 h and the microsomal CLint at 1 μM is 12.7 µL/min/mg. In addition, the “MIC90 LORA” value in [6] came to 3.4 µg/mL (≈ 8.22 µM). In addition, at hERG, the inhibition at 0.3 µM was found to be 0.8% and the inhibition at 1 µM is 11%.
`Fc1ccc(-c2cnn3c(NCc4ccc(Cl)cn4)cc(-c4ccccc4)nc23)cc1` [Compound 53, N-((5-Chloropyridin-2-yl)methyl)-3-(4-fluorophenyl)-5-phenylpyrazolo[1,5-a]pyrimidin-7-amine] yielded a melting point of 139 to 141 °C. The molecule further returned an MIC90 in data set [2] of 4.9 µg/mL (≈ 11.4 µM). Further, in data set [3] (human, microsomes), the CLint scaled at 1 μM is less than 8.6 mL/min/kg and the half-life at 1 μM is more than 2.42 h. Moreover, in data set [3], the microsomal CLint at 1 μM is less than 9.6 µL/min/mg. For the same molecule, the IC50 in [4] was more than 32 µg/mL. Further, in data set [5], the CLint scaled at 1 μM was less than 38 mL/min/kg, the half-life at 1 μM was more than 2.42 h and the microsomal CLint at 1 μM was less than 9.6 µL/min/mg. In data set [6], the “MIC90 LORA” value amounted to 7.2 µg/mL (≈ 16.7 µM). Besides, at hERG, the inhibition at 0.3 µM came out at 0.7% and the inhibition at 1 µM is 0%.
As to `COc1ccnc(CNc2cc(-c3ccccc3)nc3c(-c4ccc(F)cc4)cnn23)c1` [Compound 63, 3-(4-Fluorophenyl)-N-((4-methoxypyridin-2-yl)methyl)-5-phenylpyrazolo[1,5-a]pyrimidin-7-amine], the melting point was in the range of 205 to 208 °C. For the same molecule, the MIC90 in data set [2] worked out at 1.9 µg/mL (≈ 4.47 µM). In [3] (human, microsomes), this molecule came in with a CLint scaled at 1 μM of less than 8.6 mL/min/kg and a half-life at 1 μM of more than 2.42 h. Moreover, the microsomal CLint at 1 μM in data set [3] is less than 9.6 µL/min/mg. In data set [4], this molecule displayed a concentration for half-maximal inhibition (IC50) of more than 32 µg/mL. Besides, in [5], the CLint scaled at 1 μM was less than 38 mL/min/kg, the half-life at 1 μM was more than 2.42 h and the microsomal CLint at 1 μM was less than 9.6 µL/min/mg. For the same molecule, the “MIC90 LORA” value in data set [6] came to 0.5 µg/mL (≈ 1.18 µM). Further, on hERG, the inhibition at 0.3 µM turned out to be 2.3% and the inhibition at 1 µM came to 4.6%.
For `Fc1ccc(-c2cnn3c(NCc4cc(N5CCCCC5)ccn4)cc(-c4ccccc4)nc23)cc1` [Compound 68, 3-(4-Fluorophenyl)-5-phenyl-N-((4-(piperidin-1-yl)pyridin-2-yl)methyl)pyrazolo[1,5-a]pyrimidin-7-amine], the melting point is 189 to 191 °C. In [2], this molecule gave an MIC90 of 0.96 µg/mL (≈ 2.01 µM). Also, in [3] (human, microsomes), the intrinsic clearance (CLint scaled) at 1 μM worked out at 11 mL/min/kg and the half-life at 1 μM was 1.87 h. For the same molecule, the microsomal CLint at 1 μM in [3] is 12 µL/min/mg. The same molecule had an IC50 in [4] of more than 32 µg/mL. Also, in data set [5], the intrinsic metabolic clearance (CLint scaled) at 1 μM is 92 mL/min/kg, the half-life at 1 μM turned out to be 1 h and the microsomal CLint at 1 μM turned out to be 23 µL/min/mg. The “MIC90 LORA” value in data set [6] is recorded as 0.85 µg/mL (≈ 1.78 µM). Further, on hERG, the inhibition at 0.3 µM was 19% and the inhibition at 1 µM is 36%.
